One data set can be described thus: in vitro. The data set is classed as in vitro ADME, mice. The conditions noted are these: Crl:CD-1 (ICR), mouse, pH 7.4; murine serum, equilibrium dialysis, 37° C., 5 to 6 hours; read-out: Protein binding rate (converted). A general note: In equilibrium dialysis only unbound substance equilibrates across the membrane.
Data set [1] relates to pruritus mice model to which morphine had been intracisternally administered. Kind of data set: Anti-pruritic effect in pruritus mice model to which morphine had been intracisternally administered. The following applies: Mus musculus; oral administration, male ICR mice, inhibition of morphine-induced scratching behavior; read-out: ED50. Format: in vivo.
Data set [2] is described as follows: Plasma concentration of test substance at ED50 value (mice, LC/MS/MS). The data set is classed as in vivo. The conditions noted are these: at the ED50 value, at time of morphine administration, oral, linear regression from two doses.

Structures can show the parent of a compound that is named as a salt.

A word on the ED50: it is the dose at which the effect has come halfway, by size or by number of responders. `CC[C@]1(c2cc(NS(=O)(=O)C3CC3)ccc2F)[C@@H]2CN(CC3(O)Cc4ccccc4C3)C[C@@H]21` [Example 2-(b), N-(3-{(1R,5S,6r)-6-ethyl-3-[(2-hydroxy-2,3-dihydro-1H-inden-2-yl)methyl]-3-azabicyclo[3.1.0]hexan-6-yl}-4-fluorophenyl)cyclopropanesulfonamide hydrochloride]: in the data set “in vitro”, the fraction unbound is 0.006. Besides, in data set [1], the 50% effective dose (ED50) came out at 0.83 mg/kg. For the same molecule, the “Plasma concentration of test substance” value in data set [2] is given as 21.4 nM.
For the molecule `CC[C@]1(c2cccc(NS(=O)(=O)C3CC3)c2)[C@@H]2CN(CCCC3CCC(F)(F)CC3)C[C@@H]21` [Example 4-(b), N-(3-{(1R,5S,6r)-3-[3-(4,4-difluorocyclohexyl)propyl]-6-ethyl-3-azabicyclo[3.1.0]hexan-6-yl}phenyl)cyclopropanesulfonamide hydrochloride], the fraction unbound in the data set “in vitro” was 0.019. Also, the ED50 in data set [1] was 0.5 mg/kg. In data set [2], the “Plasma concentration of test substance” value stood at 31.6 nM.
For `CC[C@]1(c2cc(NS(=O)(=O)C3CC3)ccc2F)[C@@H]2CN(CCCC3CCC(F)(F)CC3)C[C@@H]21` [Example 5-(b), N-(3-{(1R,5S,6r)-3-[3-(4,4-difluorocyclohexyl)propyl]-6-ethyl-3-azabicyclo[3.1.0]hexan-6-yl}-4-fluorophenyl)cyclopropanesulfonamide hydrochloride], the fraction unbound in the data set “in vitro” was 0.005. For the same molecule, the ED50 in data set [1] was 1.7 mg/kg. In data set [2], the “Plasma concentration of test substance” value is on record as 116 nM.
For `CC[C@]1(c2cccc(NS(=O)(=O)C3CC3)c2)[C@@H]2CN(CCCN3CCC(F)(F)C3)C[C@@H]21` [Example 8-(b), N-(3-{(1R,5S,6r)-3-[3-(3,3-difluoropyrrolidin-1-yl)propyl]-6-ethyl-3-azabicyclo[3.1.0]hexan-6-yl}phenyl)cyclopropanesulfonamide hydrochloride], the fraction unbound in “in vitro” was 0.316. In data set [1], the ED50 was found to be 2 mg/kg. Further, the “Plasma concentration of test substance” value in data set [2] is recorded as 10.9 nM.
With `CC[C@]1(c2cc(F)cc(NS(=O)(=O)C3CC3)c2)[C@@H]2CN(CC3(O)Cc4ccccc4C3)C[C@@H]21` [Example 10-(b), N-(3-{(1R,5S,6r)-6-ethyl-3-[(2-hydroxy-2,3-dihydro-1H-inden-2-yl)methyl]-3-azabicyclo[3.1.0]hexan-6-yl}-5-fluorophenyl)cyclopropanesulfonamide hydrochloride], in “in vitro”, the fraction unbound is 0.102. The ED50 in data set [1] came out at 1.8 mg/kg. For the same molecule, in data set [2], the “Plasma concentration of test substance” value was 129 nM.
As for `CC[C@]1(c2cc(NS(=O)(=O)C3CC3)ccc2F)[C@@H]2CN(CCCN3CCC(F)(F)CC3)C[C@@H]21` [Example 15-(b), N-(3-{(1R,5S,6r)-3-[3-(4,4-difluoropiperidin-1-yl)propyl]-6-ethyl-3-azabicyclo[3.1.0]hexan-6-yl}-4-fluorophenyl)cyclopropanesulfonamide hydrochloride], the fraction unbound in the data set “in vitro” is 0.1. In addition, in data set [1], the median effective dose (ED50) amounted to 3.1 mg/kg. Besides, in data set [2], the “Plasma concentration of test substance” value is 71.5 nM.
Take `CC[C@]1(c2cccc(NS(=O)(=O)C3CC3)c2)[C@@H]2CN(CCCN3CCCC(F)(F)C3)C[C@@H]21` [Example 16-(b), N-(3-{(1R,5S,6r)-3-[3-(3,3-difluoropiperidin-1-yl)propyl]-6-ethyl-3-azabicyclo[3.1.0]hexan-6-yl}phenyl)cyclopropanesulfonamide hydrochloride]: the fraction unbound in the data set “in vitro” is 0.246. In data set [1], the ED50 amounted to 5.7 mg/kg. Further, in data set [2], the “Plasma concentration of test substance” value came to 44.5 nM.
